This passage reports T/C results from PubChem BioAssay AID330 (DTP/NCI, 2004).

Where “and” joins values, the source holds several entries; their conditions need not be identical. Identical values can stand only once. Toxic doses and inconclusive results are not listed.

The assay relates to P388 leukemia ip, CD2F1 mice, survival T/C. The assay is described as follows: NCI In Vivo Anticancer Drug Screen. Data for tumor model P388 Leukemia (intraperitoneal) in CD2F1 (CDF1) mice. As to conditions: endpoint: median survival time, higher = longer survival. The method, boiled down: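 Mice carrying the transplanted tumor received test compound or vehicle. Survival was recorded in each group, and the value is the treated-group measurement divided by that of the vehicle-treated control group.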

[1] abbreviates: dose: 50.0 mg/kg/injection, schedule: Q01DX005 (ip), vehicle: Klucel (hydroxypropylcellulose) (HPC).
[2] abbreviates: dose: 100.0 mg/kg/injection, schedule: Q01DX005 (ip), vehicle: Klucel (hydroxypropylcellulose) (HPC).
The mark [3] stands for this setting: dose: 50.0 mg/kg/injection, schedule: Q01DX009 (ip), vehicle: Klucel (hydroxypropylcellulose) (HPC).
[4] abbreviates: dose: 100.0 mg/kg/injection, schedule: Q01DX009 (ip), vehicle: Klucel (hydroxypropylcellulose) (HPC).
[5] abbreviates: dose: 200.0 mg/kg/injection, schedule: Q01DX009 (ip), vehicle: Klucel (hydroxypropylcellulose) (HPC).
The mark [6] stands for this setting: dose: 60.0 mg/kg/injection, schedule: Q01DX005 (ip), vehicle: saline with Tween-80.
The mark [7] stands for this setting: dose: 120.0 mg/kg/injection, schedule: Q01DX005 (ip), vehicle: saline with Tween-80.
The mark [8] stands for this setting: dose: 240.0 mg/kg/injection, schedule: Q01DX005 (ip), vehicle: saline with Tween-80.
Where [9] appears, read: dose: 60.0 mg/kg/injection, schedule: Q01DX005 (ip), vehicle: Klucel (hydroxypropylcellulose) (HPC).
[10] abbreviates: dose: 120.0 mg/kg/injection, schedule: Q01DX005 (ip), vehicle: Klucel (hydroxypropylcellulose) (HPC).
The mark [11] stands for this setting: dose: 240.0 mg/kg/injection, schedule: Q01DX005 (ip), vehicle: Klucel (hydroxypropylcellulose) (HPC).

`CN1C(=O)CN(CN2CCOCC2)C1=O`: the T/C was 106 % of control under setting [1]; 115 % of control under setting [2]; 117 % of control (dose: 200.0 mg/kg/injection, schedule: Q01DX005 (ip), vehicle: Klucel (hydroxypropylcellulose) (HPC)).

On to `c1ccc2sc(SCSc3nc4ccccc4s3)nc2c1`, for which the T/C by setting is: under setting [3], 111 % of control; under setting [4], 112 % of control; under setting [5], 114 % of control; (dose: 400.0 mg/kg/injection, schedule: Q01DX009 (ip), vehicle: Klucel (hydroxypropylcellulose) (HPC)) 117 % of control.

With `O=C1NN2CCCN=C2c2ccncc21`, the T/C is 98 % of control (dose: 60.0 mg/kg/injection, schedule: Q01DX005 (ip), vehicle: saline); 97 % of control (dose: 120.0 mg/kg/injection, schedule: Q01DX005 (ip), vehicle: saline); 93 % of control (dose: 240.0 mg/kg/injection, schedule: Q01DX005 (ip), vehicle: saline).

Consider `Cl[C](Cl)(Cl)[Hg][c]1ccccc1`, for which the T/C is 98 % of control (dose: 1.5 mg/kg/injection, schedule: Q01DX009 (ip), vehicle: saline with Tween-80); 99 % of control (dose: 3.0 mg/kg/injection, schedule: Q01DX009 (ip), vehicle: saline with Tween-80); 114 % of control (dose: 6.0 mg/kg/injection, schedule: Q01DX009 (ip), vehicle: saline with Tween-80); 89 % of control (dose: 12.0 mg/kg/injection, schedule: Q01DX009 (ip), vehicle: saline with Tween-80).

As to `CN(C)/C=C/C(=O)c1ccccc1`, the T/C reads like this: under setting [6], 107 % of control; under setting [7], 101 % of control; under setting [8], 102 % of control.

Turning to `NCC(=O)OCN1C(=O)C2C3C=CC(C2C1=O)C1C2C(=O)N(COC(=O)CN)C(=O)C2C31` (configuration not stated), the T/C reads like this: (dose: 6.25 mg/kg/injection, schedule: Q01DX009 (ip), vehicle: water) 109 % of control; (dose: 12.5 mg/kg/injection, schedule: Q01DX009 (ip), vehicle: water) 104 % of control; (dose: 25.0 mg/kg/injection, schedule: Q01DX009 (ip), vehicle: water) 104 % of control and 109 % of control; (dose: 25.75 mg/kg/injection, schedule: Q01DX009 (ip), vehicle: water) 112 % of control; (dose: 50.0 mg/kg/injection, schedule: Q01DX009 (ip), vehicle: water) 99 % of control and 115 % of control and 116 % of control; (dose: 51.5 mg/kg/injection, schedule: Q01DX009 (ip), vehicle: water) 121 % of control. The T/C (dose: 100.0 mg/kg/injection, schedule: Q01DX009 (ip), vehicle: water) was 118 % of control; the T/C (dose: 103.0 mg/kg/injection, schedule: Q01DX009 (ip), vehicle: water) was 203 % of control; the T/C (dose: 200.0 mg/kg/injection, schedule: Q01DX009 (ip), vehicle: water) was 91 % of control; the T/C (dose: 400.0 mg/kg/injection, schedule: Q01DX009 (ip), vehicle: water) was 173 % of control.

For the molecule `CC1(C)C=C2OC(=O)CCC2(C)CC1` (configuration not stated), the T/C is, setting by setting: (dose: 50.0 mg/kg/injection, schedule: Q01DX001 (ip), vehicle: saline with Tween-80) 95 % of control; (dose: 100.0 mg/kg/injection, schedule: Q01DX001 (ip), vehicle: saline with Tween-80) 118 % of control; (dose: 200.0 mg/kg/injection, schedule: Q01DX001 (ip), vehicle: saline with Tween-80) 90 % of control.

For the molecule `O=NNc1ccc(Oc2ccccc2)cn1`, the T/C (dose: 6.25 mg/kg/injection, schedule: Q01DX009 (ip), vehicle: saline) is 156 % of control.

For the molecule `CCC(O)(CC)/C(C)=N/O`, the T/C is, setting by setting: (dose: 50.0 mg/kg/injection, schedule: Q01DX009 (ip), vehicle: saline with Tween-80) 91 % of control; (dose: 100.0 mg/kg/injection, schedule: Q01DX009 (ip), vehicle: saline with Tween-80) 89 % of control; (dose: 200.0 mg/kg/injection, schedule: Q01DX009 (ip), vehicle: saline with Tween-80) 94 % of control.

Take `O=c1[nH]c2ccccc2c(Oc2ccccc2)c1I`: the T/C under setting [9] is 89 % of control, the T/C under setting [10] was 92 % of control and the T/C under setting [11] was 101 % of control.

With `CCCCN(CCCC)CC1CC(C(C)(C)C)CCC1O` (configuration not stated), the T/C was 91 % of control under setting [1] and 91 % of control under setting [2].

With `CN(C)C(P1(=O)OC(C)(C)C(C)(C)O1)P1(=O)OC(C)(C)C(C)(C)O1`, the T/C (dose: 50.0 mg/kg/injection, schedule: Q01DX005 (ip), vehicle: saline) is 104 % of control; the T/C (dose: 100.0 mg/kg/injection, schedule: Q01DX005 (ip), vehicle: saline) is 99 % of control; the T/C (dose: 200.0 mg/kg/injection, schedule: Q01DX005 (ip), vehicle: saline) was 98 % of control.

Consider `CC1CN1P(=S)(N1CC1C)N1CC1C` (configuration not stated), for which the T/C is, setting by setting: (dose: 2.5 mg/kg/injection, schedule: Q01DX010 (ip), vehicle: saline) 110 % of control; (dose: 5.0 mg/kg/injection, schedule: Q01DX010 (ip), vehicle: saline) 95 % of control; (dose: 10.0 mg/kg/injection, schedule: Q01DX010 (ip), vehicle: saline) 115 % of control.

Consider `CN(C)c1ccc(C2OC(=N)C(=S)N2C)cc1` (configuration not stated), for which the T/C is 112 % of control under setting [9], 109 % of control under setting [10] and 109 % of control under setting [11].

`Cn1cc(-n2[nH]c(=O)n(-c3ccccc3)c2=O)c(=O)n(C)c1=O`: the T/C runs as follows: under setting [3], 101 % of control; under setting [4], 101 % of control; under setting [5], 96 % of control.

In the case of `C/C=C/N1C(=O)C2C=CC1C(C(=O)OC)=C2C(=O)OC` (configuration not stated), the T/C runs as follows: (dose: 100.0 mg/kg/injection, schedule: Q01DX001 (ip), vehicle: saline) 100 % of control; (dose: 200.0 mg/kg/injection, schedule: Q01DX001 (ip), vehicle: saline) 99 % of control; (dose: 400.0 mg/kg/injection, schedule: Q01DX001 (ip), vehicle: saline) 94 % of control.

Turning to `CCNC(=O)n1cccc(OC)c1=O`, the T/C by setting is: (dose: 50.0 mg/kg/injection, schedule: Q01DX009 (ip), vehicle: saline) 101 % of control and 107 % of control; (dose: 100.0 mg/kg/injection, schedule: Q01DX009 (ip), vehicle: saline) 109 % of control and 114 % of control and 119 % of control; (dose: 200.0 mg/kg/injection, schedule: Q01DX009 (ip), vehicle: saline) 111 % of control and 116 % of control; (dose: 300.0 mg/kg/injection, schedule: Q01DX009 (ip), vehicle: saline) 109 % of control.

For `C#C/C=C/CC1OC(CC)/C=C\C=C/CC1Cl` (configuration not stated), the T/C runs as follows: (dose: 2.0 mg/kg/injection, schedule: Q01DX009 (ip), vehicle: Klucel (hydroxypropylcellulose) (HPC)) 100 % of control; (dose: 4.0 mg/kg/injection, schedule: Q01DX009 (ip), vehicle: Klucel (hydroxypropylcellulose) (HPC)) 109 % of control; (dose: 8.0 mg/kg/injection, schedule: Q01DX009 (ip), vehicle: Klucel (hydroxypropylcellulose) (HPC)) 96 % of control; (dose: 16.0 mg/kg/injection, schedule: Q01DX009 (ip), vehicle: Klucel (hydroxypropylcellulose) (HPC)) 104 % of control.

On to `CC1C(=O)CCC2C1(C)CCC1C2(C)CCC2(C)C3CC(C)(C(=O)O)CCC3(C)CCC12C` (configuration not stated), for which the T/C was 94 % of control (dose: 12.5 mg/kg/injection, schedule: Q01DX005 (ip), vehicle: Klucel (hydroxypropylcellulose) (HPC)); 100 % of control (dose: 25.0 mg/kg/injection, schedule: Q01DX005 (ip), vehicle: Klucel (hydroxypropylcellulose) (HPC)); 88 % of control under setting [1]; 87 % of control under setting [2].

As for `Cc1cc(=O)oc2cc(OCc3c(F)cccc3Cl)ccc12`, the T/C by setting is: under setting [6], 97 % of control; under setting [7], 90 % of control; under setting [8], 91 % of control.

Turning to `Cc1cc2c(cc1N)C(C)C1(CCC(=O)N2Cc2ccccc2)OCCO1` (configuration not stated), the T/C is, setting by setting: (dose: 50.0 mg/kg/injection, schedule: Q01DX005 (ip), vehicle: saline with Tween-80) 96 % of control; (dose: 100.0 mg/kg/injection, schedule: Q01DX005 (ip), vehicle: saline with Tween-80) 99 % of control; (dose: 200.0 mg/kg/injection, schedule: Q01DX005 (ip), vehicle: saline with Tween-80) 93 % of control.
